Consider 24 compounds from patent publication US4937346A, “Phenyl-azacykloalkanes” (Carlsson; Per Arvid Emil, priority 1979, dated 1990).

Experiment [1] deals with rat brain tyrosine hydroxylation. Put plainly: In-vivo determination of rat brain tyrosine hydroxylation (Dopa formation after NSD 1015, reserpine-pretreated rats). To be noted: sc. How it is done:
2. In-vivo determination of rat brain tyrosine hydroxylation.
The compounds under evaluation were tested biochemically for central DA-receptor (pre- and/or postsynaptic) stimulating activity. The concept of this biochemical screening method is that a DA-receptor agonist will stimulate the receptor and through regulatory feedback systems effect a decline in tyrosine hydroxylase activity and thus a subsequent reduction in the synthesis rate for DA in the presynaptic neuron. Dopa formation, as determined after in-vivo inhibition of the aromatic L-amino acid decarboxylase with NSD 1015 (3-hydroxybenzyl-hydrazine hydrochloride), is taken as an indirect measure of DA synthesis rate.
Rats (150-300 g) pretreated with reserpine were given the compounds under evaluation. Gross behavioral observations (changes in motility, stereotypies etc.) were made in order to evaluate possible postsynaptic dopamine receptor activity. Subsequent administration of NSD 1015, decapitation, brain dissection (corpora striate and the limbic fore-brain), homogenization, centrifugation, ion-exchange chromatography and spectrofluorimetric measurements (all as described in detail by Wikstrom et al., in J. Med. Chem. 21, 864-867, 1978, and references cited therein), gave the actual Dopa levels. Several doses (n=4-6) were tested in order to obtain dose-response curves for each compound and brain area. The dose of a compound producing a half-maximal decrease in the Dopa level in the rat brain part was then estimated.

The next experiment deals with DA autoreceptors. Put plainly: Effect on spontaneous locomotor activity in the rat. In kind it is in vivo. To be noted: 0-15 min; haloperidol 0.02 mg/kg i.p. 25 min before + saline, n=5. The text has this:
4. Effect on spontaneous locomotor activity in the rat.
Untreated animals exposed to a new environment display an initial high motor activity which then gradually declines over a period of time. Administration of DA-receptor agonists (e.g. apomorphine) in doses where preferential autoreceptor stimulation is likely to occur, causes a depression of the spontaneous motility mentioned above, considered to be due to the DA autoreceptor-mediated impairment of central DA transmission.
Rats (150-300 g) were injected subcutaneously with several doses of compounds 4 and after 5 minutes they were individually placed in motility boxes ("M/P 40 Fc Electronic Motility Meter". Motron Products, Stockholm) and the motor activity (0-30 min.) was quantified. […] Moreover, there seems to be a correlation between the decrease in spontaneous locomotion and the degree of antagonism of the GBL-induced increase in DA synthesis (cf. 3 above) in the limbic areas of rat brain exerted by compound 4, the per cent decrease of motor activity being roughly 0.6 times the per cent reversal of GBL-induced increase in DA-synthesis rate.

Experiment [2] relates to central postsynaptic DA-receptor. As to the kind of experiment: Locomotor activity in reserpine-pretreated rats, comparison of compound 4 with two known dopaminergic agonists. In kind it is in vivo, rat. To be noted: for Motor activity: 0-60 min postinj.; for central postsynaptic DA-receptor stimulation / motor response: s.c. As to the method: Rats (150-300 g) pretreated with reserpine (10 mg/ kg i.p., 6 h before) were given either phys. saline, compound 4 (100 μmol/kg), N-n-propyl-3-(3,4-dihydroxyphenyl)piperidine (100 μmol/kg) or apomorphine ([…]) subcutaneously and the locomotor activity (accumulated counts 0-60 min.) was quantified by means of Motron boxes (see under 4 above).

The subject of experiment [3] is postsynaptic DA receptors. Put plainly: Antagonism of the reserpine-induced "neuroleptic syndrome" in the rat. The class given is in vivo. To be noted: 20 mg/kg s.c. The text has this: 1. Antagonism of the reserpine-induced "neuroleptic syndrome" in the rat
Depletion of the monoamine stores with reserpine brings about a "neuroleptic syndrome" characterized by hypomotility, catalepsy, muscle rigidity, hunch-backed posture as well as a number of other central and peripheral signs of monoamine depletion. This syndrome can be reversed by the administration of drugs that stimulate postsynaptic DA receptors directly or indirectly, e.g. apomorphine, L-Dopa.
Rats (150-300 g) pretreated with reserpine (10 mg/kg i.p., 6 h before) were given compound 4 subcutaneously at different doses.

The test system of experiment [4] is dopaminergic receptors (presynaptic and postsynaptic). As to the kind of experiment: Dopaminergic receptor profile of 3-PPP and its enantiomers (summary of tests). The class given is in vivo. To be noted: summary of enantiomer tests. The source says:
The two enantiomers of 3-PPP have now been tested separately.

Another experiment relates to dopa formation. As to the kind of experiment: Dopa formation and dopamine metabolite levels in rats not pretreated with GBL or reserpine. The class given is in vivo, rat.
The subject of experiment [5] is postsynaptic dopaminergic receptors. As to the kind of experiment: Locomotor activity in reserpine-treated rats, enantiomers of 3-PPP. The class given is in vivo, rat. The source says: 2. Evidence for postsynaptic dopaminergic receptor agonist activity of (+)-3-PPP.
Experiment [6] has as its system presynaptic dopaminergic receptor (autoreceptor). As to the kind of experiment: Spontaneous exploratory motor activity of rats, enantiomers of 3-PPP. The class given is in vivo, rat. As to the method:
1. Evidence for presynaptic dopaminergic receptor (autoreceptor) agonist activity of both enantiomers of 3-PPP. Both enantiomers of 3-PPP cause a dose-dependent decrease in spontaneous exploratory motor activity of rats. […] However, the (+)-enantiomer causes a decrease only after doses between 0.25 and 4 mg/kg s.c.

The subject of experiment [7] is postsynaptic dopaminergic receptor. As to the kind of experiment: Antagonism of apomorphine-induced locomotor stimulation. In kind it is in vivo, rat. To be noted: apomorphine 1 mg/kg s.c., means ± s.e.m., n=10. As to the method: 3. Evidence for postsynaptic dopminergic receptor antagonist activity of (-)-3-PPP.
The locomotor stimulating action of the dopamine receptor aqonist apomorphine is antagonized by (-)-3-PPP. […] Thus the postsynaptic receptor antagonist activity requires a larger dose than the presynaptic receptor agonist activity, which is evident after doses down to 0.25 mg/kg.
Further, (-)-3-PPP and racemic 3-PPP have been compared regarding antagonism of apomorphine-induced locomotor stimulation. Either form of 3-PPP was injected subcutaneously in a dose of 8 mg/kg 20 min and apomorphine in a dose of 1 mg/kg subcutaneously 5 min before placing the rats in the Motron for 30 min. Shown are the counts per 30 min., means± s.e.m. and number of experiments (n).

The mark [8] stands for this setting: reserpine-pretreated rats, Dopa level, limbic, read-out: ED50 Limbic.
[9] abbreviates: reserpine-pretreated rats, Dopa level, striatum, read-out: ED50 Striatum.
Setting [10] is: limbic, inactive, read-out: ED50 Limbic (class symbol).
[11] abbreviates: striatum, inactive, read-out: ED50 Striatum (class symbol).

Counter-ions that a name gives are not always drawn. Like-named read-outs stand apart in the source and are kept apart here.

Turning to `CCCN1CCCC(c2cccc(OC(C)=O)c2)C1` (centres unmarked) [Compound 10, N-n-Propyl-3-(3-acetoxyphenyl)piperidine hydrochloride], the ED50 in experiment [1] (setting [8]) is 1.2 µmol/kg; in experiment [1] (setting [9]) it was 1.5 µmol/kg.

As to `C=CCN1CCCC(c2cccc(O)c2)C1` (centres unmarked) [Compound 9], the ED50 in experiment [1] (setting [8]) was 4.2 µmol/kg; in [1] (setting [9]) it was 4 µmol/kg.

Turning to `CCCN1CCCC(c2cccc(OC(=O)c3c(C)cccc3C)c2)C1` (centres unmarked) [Compound 19, N-n-Propyl-3-[2,6-dimethylbenzoyloxy)-phenyl]piperidine hydrochloride], the ED50 in [1] (setting [8]) and in [1] (setting [9]) was less than 45 µmol/kg in each case.

For `O=C(CCCN1CCC(O)(c2ccc(Cl)cc2)CC1)c1ccc(F)cc1` [Haloperidol, reference compound], in the experiment on DA autoreceptors, the Motor activity came to 140 ± 22 acc. counts.

In the case of `Oc1cccc(C2CCNC2)c1` (centres unmarked) [1 OH H HBr, reference compound], the ED50 in [1] (setting [10]) and in [1] (setting [11]) was greater than 90 µmol/kg in each case.

With `CN1CCCC(c2cccc(O)c2)C1` (centres unmarked) [Compound 1], the ED50 in experiment [1] (setting [8]) is 2.1 µmol/kg; in [1] (setting [9]) it was 1.5 µmol/kg.

In the case of `OCCN1CCCC(c2cccc(O)c2)C1` (centres unmarked) [Compound 13, 2-[3-(3-Hydroxyphenyl)-piperidino]ethanol hydrochloride], the ED50 in experiment [1] (setting [8]) and in experiment [1] (setting [9]) was roughly 20 µmol/kg each time.

On to `CCCN1CCCC(c2ccc(O)c(O)c2)C1` (centres unmarked) [N-n-propyl-3-(3,4-dihydroxyphenyl)piperidine, reference compound], for which the ED50 turned out to be 9.4 µmol/kg in [1] (setting [8]) and 10 µmol/kg in experiment [1] (setting [9]). Further, the Motor activity in experiment [2] (100 μmol/kg s.c.) was 522 ± 83 acc. counts. For the same compound, in experiment [2], the “central postsynaptic DA-receptor stimulation / motor response” value is given as “strong central postsynaptic DA-receptor stimulatory effects”.

Regarding `C=CCOc1cccc(C2CCCN(CCC)C2)c1` (centres unmarked) [Compound 16, N-n-Propyl-3-(3-allyloxyphenyl)piperidine hydrochloride], the 50% effective dose (ED50) in experiment [1] (setting [8]) and in experiment [1] (setting [9]) was less than 45 µmol/kg throughout.

Regarding `CC(C)N1CCCC(c2cccc(O)c2)C1` (centres unmarked) [Compound 7, N-isopropyl-3-(3-hydroxphenyl)piperidine], the ED50 stood at 0.8 µmol/kg in [1] (setting [8]) and 0.7 µmol/kg in experiment [1] (setting [9]). In experiment [3], the “antagonism of the reserpine-induced syndrome” value was “No antagonism of the reserpine-induced syndrome was seen”.

For the compound `CCCN1CCCC(c2cccc(OC(=O)Nc3ccccc3)c2)C1` (centres unmarked) [Compound 18, N-n-Propyl-3[3-(phenylcarbamoyloxy)phenyl]-piperidine hydrochloride], the ED50 in [1] (read-out: ED50 Limbic) and in experiment [1] (read-out: ED50 Striatum) was less than 45 µmol/kg in each case.

For `CCCN1CCCC(c2cccc(OC(=O)C(C)(C)C)c2)C1` (centres unmarked) [Compound 11], the ED50 in experiment [1] (setting [8]) was 2.2 µmol/kg; in [1] (setting [9]), 1.7 µmol/kg.

`CCCCCN1CCCC(c2cccc(O)c2)C1` (centres unmarked) [Compound 6, N-pentyl-3-(3-hydroxyphenyl)piperidine hydrochloride]: the ED50 was 0.9 µmol/kg in [1] (setting [8]) and 0.6 µmol/kg in experiment [1] (setting [9]).

Take `CCCN1CCCC(c2cccc(OC(=O)c3ccccc3)c2)C1` (centres unmarked) [Compound 12, N-n-Propyl-3-(3-benzoyloxyphenyl)piperidine hydrochloride]: the ED50 in experiment [1] (setting [8]) was determined as 1.8 µmol/kg; in experiment [1] (setting [9]), 2 µmol/kg.

On to `CC(C)N1CCCC(c2cccc(OC(=O)c3ccccc3)c2)C1` (centres unmarked) [Compound 21], for which the ED50 in experiment [1] (setting [8]) and in experiment [1] (setting [9]) was 0.5 µmol/kg each time.

Regarding `CCCCN1CCCC(c2cccc(O)c2)C1` (centres unmarked) [Compound 5, N-butyl-3-(3-hydroxphenyl)piperidine], the median effective dose (ED50) was 1.7 µmol/kg in experiment [1] (setting [8]) and 0.7 µmol/kg in experiment [1] (setting [9]).

For the compound `CCCN1CCCC(c2cccc(O)c2)C1` (single isomer, unassigned; (+)) [(+)-3-PPP, reference compound], the “activity on presynaptic and postsynaptic dopaminergic receptors” value in experiment [4] was “dopaminergic receptor agonist by activating both the presynaptic and the postsynaptic receptors”. In addition, the dopa formation result in the experiment with dopa formation (0.053 to 64 mg/kg, no pretreatment) is “decrease”. Besides, the “levels of 3,4-dihydroxyphenyl acetic acid and homovanillic acid” value in the experiment with dopa formation (matched to the changes in dopa formation) was “corresponding changes in the levels of the dopamine metabolites”. Further, the “effect of haloperidol on locomotor stimulation” value in experiment [5] (haloperidol) is listed as “blocked by haloperidol”. In addition, the “stimulation of locomotor activity” value in experiment [5] (reserpine-treated rats, (+)-form 0.25 to 64 mg/kg) was “marked stimulation of locomotor activity”. The “effect on locomotor activity” value in [6] (8 mg/kg s.c.) was “no effect”. Besides, in experiment [6] (64 mg/kg s.c.), the “increase of locomotor activity to % of control” value is given as “more than 200 % of control”. Besides, the “decrease of locomotor activity to % of control” value in experiment [6] (s.c., first 30 min) is 30-40 % of control.

Consider `CCCN1CCC(c2cccc(O)c2)C1` (centres unmarked) [Compound 3, N-propyl-30(3-hydroxyphenyl)pyrrolidine], for which the 50% effective dose (ED50) in [1] (setting [8]) and in experiment [1] (setting [9]) was roughly 45 µmol/kg throughout.

On to `CN1CCc2cccc3c2[C@H]1Cc1ccc(O)c(O)c1-3` [Apomorphine, reference compound], for which the median effective dose (ED50) in [1] (setting [8]) was 0.19 µmol/kg; in experiment [1] (setting [9]) it was 0.22 µmol/kg. For the same compound, the Motor activity in experiment [2] (2 μmol/kg s.c.) turned out to be 624 ± 51 acc. counts. The “central postsynaptic DA-receptor stimulation / motor response” value in [2] was “strong central postsynaptic DA-receptor stimulatory effects”. For the same compound, in [7], the “counts per 30 min., apomorphine alone” value amounted to 513 ± 35 counts per 30 min.

`CCCCN1CCCC(c2cccc(OC(=O)c3ccccc3)c2)C1` (centres unmarked) [Compound 22]: the 50% effective dose (ED50) in [1] (setting [8]) and in experiment [1] (setting [9]) was less than 2.7 µmol/kg each time.

For the compound `CN(C)CCN1CCCC(c2cccc(O)c2)C1` (centres unmarked) [Compound 14], the ED50 in experiment [1] (setting [8]) and in [1] (setting [9]) was roughly 20 µmol/kg throughout.

Regarding `CCCN1CCCC(c2cccc(OC(=O)c3ccc(OC(=O)C(C)(C)C)cc3)c2)C1` (centres unmarked) [Compound 20], the ED50 in [1] (setting [8]) and in [1] (setting [9]) was less than 45 µmol/kg each time.

With `CCCN1CCCC(c2cccc(OC)c2)C1` (centres unmarked) [2 OCH3 n-C3 H7 HBr, N-Propyl-3-(3-methoxyphenyl)piperidine hydrobromide, reference compound], the ED50 in experiment [1] (setting [10]) and in experiment [1] (setting [11]) was greater than 180 µmol/kg throughout.

In the case of `CCCN1CCCC(c2cccc(OCc3ccccc3)c2)C1` (centres unmarked) [Compound 17, N-n-Propyl-3-(3-benzyloxyphenyl)piperidine hydrochloride], the ED50 in [1] (setting [8]) and in experiment [1] (setting [9]) was less than 45 µmol/kg throughout.

Broadly, the ED50 is the dose at which the effect has come halfway, by size or by number of responders.
